This note sets out measurements from ChEMBL document CHEMBL1201862, “PubChem BioAssay data set” (2004).

Test systems include CCRF-CEM; COLO 205; DU-145; EKVX; IGROV-1; KM12; MCF7; MDA-MB-435; MOLT-4; NCI-H23; OVCAR-3; RPMI-8226; SF-539; SK-MEL-2; SK-MEL-5; T47D; TK-10; UACC-257; UACC-62.
Common to all, as to test: NCI anticancer screen, dose series, 48 h

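Following 48 hours of exposure in 96-well plates, responses at five concentrations were used to interpolate endpoints linearly. GI50: concentration for 50% inhibition of growth.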 The source made the active and inactive calls. No stated cut-off is given here; in the data, active = GI50 up to about 1.1 µM and inactive = higher.

On to `CCCCCCCCCCCCCCCCCCNc1nc(=O)n(C2CC(O)C(COP(=O)(O)OCC(COP(=O)(O)OC3C(CO)OC(n4ccc(N)nc4=O)C3O)OCCCCCCCCCCCCCCCCCC)O2)cc1F` (configuration not stated), for which the GI50 in the assay with CCRF-CEM is 0.402 µM (active); with COLO 205, 16.7 µM (inactive); in the assay on DU-145 it was 34.8 µM (inactive); with EKVX, > 100 µM (inactive); in the assay with IGROV-1 it was 46.8 µM (inactive); in the assay with KM12, > 100 µM (inactive). Besides, the GI50 in the assay on MCF7 is 8.71 µM (inactive); in the assay on MDA-MB-435, > 100 µM (inactive); in the assay with MOLT-4, 0.675 µM (active); in the assay with NCI-H23, 32 µM (inactive); with OVCAR-3, > 100 µM (inactive); in the assay with RPMI-8226 it was 11.8 µM (inactive). In addition, the GI50 was 17.4 µM (inactive) in the assay on SF-539; > 100 µM (inactive) in the assay with SK-MEL-2; > 100 µM (inactive) in the assay on SK-MEL-5; 80.9 µM (inactive) with T47D; 33.1 µM (inactive) in the assay with TK-10; 97.3 µM (inactive) with UACC-257. Besides, in the assay with UACC-62, the GI50 is > 100 µM (inactive).
`CCN1C(=O)C(=C/C=C/c2ccc(N(CC)CC)cc2)C(=O)N(CC)C1=S`: the GI50 was 32.4 µM (inactive) in the assay with CCRF-CEM; > 100 µM (inactive) with COLO 205; > 100 µM (inactive) in the assay on DU-145; > 100 µM (inactive) in the assay with EKVX; > 100 µM (inactive) with IGROV-1; > 100 µM (inactive) in the assay with KM12. Besides, the GI50 is > 100 µM (inactive) in the assay with MCF7; 86.9 µM (inactive) in the assay with MDA-MB-435; 33.9 µM (inactive) with MOLT-4; > 100 µM (inactive) with NCI-H23; 18 µM (inactive) in the assay on OVCAR-3; > 100 µM (inactive) in the assay on RPMI-8226. Further, the GI50 in the assay on SF-539 is 72.1 µM (inactive); in the assay on SK-MEL-2, 68.5 µM (inactive); with SK-MEL-5, > 100 µM (inactive); with T47D, > 100 µM (inactive); with TK-10, > 100 µM (inactive); in the assay with UACC-257, > 100 µM (inactive). Also, the GI50 in the assay on UACC-62 is 87.5 µM (inactive).
Take `O=c1c(-c2ccccc2)c(SCCN2CCCC2)n(-c2ccccc2)c(=S)n1-c1ccccc1`: the GI50 in the assay with CCRF-CEM, in the assay on COLO 205, with DU-145, with EKVX, with IGROV-1 and in the assay with KM12 was > 100 µM (inactive) in each case. For the same compound, the GI50 in the assay with MCF7, in the assay with MDA-MB-435, in the assay with MOLT-4, in the assay on NCI-H23, in the assay on RPMI-8226 and in the assay on SF-539 was > 100 µM (inactive) throughout. For the same compound, the GI50 in the assay on SK-MEL-2, in the assay with T47D, in the assay with TK-10, with UACC-257 and with UACC-62 was > 100 µM (inactive) throughout.
Take `NC(=O)Nc1n[nH]c(-c2ccccc2)n1`: the GI50 with CCRF-CEM, with COLO 205, in the assay with DU-145, in the assay on EKVX, in the assay on IGROV-1 and in the assay on KM12 was > 100 µM (inactive) throughout. The GI50 in the assay on MCF7, in the assay with MDA-MB-435, in the assay with MOLT-4, in the assay on NCI-H23, in the assay with OVCAR-3 and in the assay on RPMI-8226 was > 100 µM (inactive) each time. For the same compound, the GI50 in the assay with SF-539, in the assay on SK-MEL-2, with SK-MEL-5, with T47D, in the assay on TK-10 and with UACC-257 was > 100 µM (inactive) throughout. Besides, the GI50 with UACC-62 is > 100 µM (inactive).
As to `CC(C)(C)OC(=O)CC(NC(=O)OC(C)(C)C)C(=O)Oc1ccc([N+](=O)[O-])cc1` (configuration not stated), the GI50 in the assay with CCRF-CEM, in the assay on COLO 205, in the assay on DU-145, with EKVX, in the assay on IGROV-1 and in the assay with KM12 was > 100 µM (inactive) each time. The GI50 with MCF7, in the assay on MDA-MB-435, in the assay on MOLT-4, in the assay with NCI-H23, in the assay on OVCAR-3 and in the assay with RPMI-8226 was > 100 µM (inactive) each time. The GI50 in the assay on SF-539 was > 100 µM (inactive); with SK-MEL-2, > 100 µM (inactive); in the assay with SK-MEL-5 it was 78.7 µM (inactive); with T47D, 89.5 µM (inactive); with TK-10, > 100 µM (inactive); with UACC-257, > 100 µM (inactive). The GI50 with UACC-62 is 11.1 µM (inactive).
For `CC1(C)N=C(N)N=C(N)N1c1cccc(C(=O)Nc2ccc(S(=O)(=O)F)cc2)c1`, the GI50 with CCRF-CEM, in the assay with COLO 205, with DU-145, in the assay with EKVX, in the assay on IGROV-1 and in the assay on KM12 was > 100 µM (inactive) in each case. Also, the GI50 in the assay on MCF7, in the assay with MDA-MB-435, in the assay with MOLT-4, in the assay on NCI-H23, in the assay with OVCAR-3 and in the assay on RPMI-8226 was > 100 µM (inactive) each time. Further, the GI50 in the assay with SF-539, in the assay with SK-MEL-2, in the assay on SK-MEL-5, with T47D, with TK-10 and with UACC-257 was > 100 µM (inactive) in each case. Also, in the assay with UACC-62, the GI50 is > 100 µM (inactive).
For the compound `NC(=O)C1=C(O)C[C@@H]2CC3Cc4cccc(O)c4C(=O)C3=C(O)[C@]2(O)C1=O` (some centres not stated), the GI50 was 0.873 µM (active) with CCRF-CEM; 1.63 µM (inactive) in the assay on COLO 205; 3.16 µM (inactive) in the assay on DU-145; 0.861 µM (active) with EKVX; 2 µM (inactive) in the assay on IGROV-1; 9.55 µM (inactive) in the assay with KM12. In addition, the GI50 with MCF7 was 1.79 µM (inactive); with MDA-MB-435 it was 10.1 µM (inactive); in the assay on MOLT-4, 1.61 µM (inactive); with NCI-H23, 1.85 µM (inactive); in the assay on OVCAR-3, 2.77 µM (inactive); in the assay with RPMI-8226, 0.755 µM (active). Besides, the GI50 in the assay with SF-539 was 1.64 µM (inactive); in the assay on SK-MEL-2, 1.86 µM (inactive); in the assay with SK-MEL-5, 1.36 µM (inactive); with T47D, 2.63 µM (inactive); in the assay on TK-10 it was 4.86 µM (inactive); in the assay with UACC-257 it was 3.07 µM (inactive). The GI50 in the assay on UACC-62 is 2.15 µM (inactive).
For the compound `C/C=C(\C)c1cc(=O)c2c(C)cc3c(c2o1)C(=O)c1c(O)c(C2CC(C)(N(C)C)C(OC(C)=O)C(C)O2)cc(C2CC(N(C)C)C(O)C(C)O2)c1C3=O` (configuration not stated), the GI50 with CCRF-CEM is 3.12 µM (inactive); in the assay with COLO 205, 0.621 µM (active); in the assay with DU-145, 0.258 µM (active); in the assay on EKVX it was 1.12 µM (active); in the assay on IGROV-1, 0.8 µM (active); in the assay with KM12, 1.12 µM (active). The GI50 is 0.157 µM (active) in the assay on MCF7; 1.03 µM (active) with MDA-MB-435; 0.372 µM (active) in the assay on MOLT-4; 0.971 µM (active) in the assay on NCI-H23; 2.13 µM (inactive) in the assay with OVCAR-3; 1.08 µM (active) with RPMI-8226. The GI50 is 0.574 µM (active) with SF-539; 1.22 µM (inactive) in the assay with SK-MEL-2; 0.625 µM (active) in the assay with SK-MEL-5; 1.53 µM (inactive) with T47D; 1.06 µM (active) in the assay with TK-10; 1.49 µM (inactive) in the assay on UACC-257. Besides, the GI50 in the assay with UACC-62 was 1.12 µM (inactive).
For `CN(Cc1cnc2nc(N)nc(N)c2n1)c1ccc(C(=O)NCS(=O)(=O)O)cc1`, the GI50 with COLO 205 was > 100 µM (inactive); in the assay with DU-145, 25.7 µM (inactive); in the assay with EKVX, > 100 µM (inactive); with IGROV-1, > 100 µM (inactive); with KM12, 60.1 µM (inactive); in the assay with MCF7 it was 57.9 µM (inactive). The GI50 is 91.2 µM (inactive) in the assay with MDA-MB-435; 68.2 µM (inactive) in the assay with MOLT-4; > 100 µM (inactive) in the assay with NCI-H23; > 100 µM (inactive) in the assay on OVCAR-3; > 100 µM (inactive) in the assay with RPMI-8226; 85.7 µM (inactive) in the assay on SF-539. The GI50 in the assay on SK-MEL-2, with SK-MEL-5, with T47D, in the assay on TK-10, in the assay on UACC-257 and with UACC-62 was > 100 µM (inactive) throughout.
In the case of `COc1cc2nc(-c3cccs3)nc(N3CCN(c4ccccc4C(F)(F)F)CC3)c2cc1OC`, the GI50 with CCRF-CEM is 7.23 µM (inactive); in the assay on COLO 205 it was > 100 µM (inactive); in the assay on DU-145, > 100 µM (inactive); with EKVX, 53.7 µM (inactive); in the assay on IGROV-1, 25.9 µM (inactive); with KM12, 75.5 µM (inactive). Besides, the GI50 is 46.2 µM (inactive) in the assay on MCF7; 52.8 µM (inactive) in the assay on MDA-MB-435; 16.7 µM (inactive) with MOLT-4; > 100 µM (inactive) in the assay on NCI-H23; 21.5 µM (inactive) in the assay on OVCAR-3; 51.3 µM (inactive) in the assay on RPMI-8226. For the same compound, the GI50 is 55.6 µM (inactive) with SF-539; > 100 µM (inactive) in the assay on SK-MEL-2; 33.3 µM (inactive) in the assay with SK-MEL-5; > 100 µM (inactive) with T47D; 45 µM (inactive) in the assay on TK-10; > 100 µM (inactive) in the assay on UACC-257. Also, in the assay with UACC-62, the GI50 was 76.7 µM (inactive).
